Tests used:
ERp57 (PDIA3) = molecular target: T1, ERp57 (PDIA3) (Homo sapiens, UniProt P30101); experiment: ERp57 reductase assay (Di-E-GSSG); assay type: biochemical
T1 sequence (P30101 25-505): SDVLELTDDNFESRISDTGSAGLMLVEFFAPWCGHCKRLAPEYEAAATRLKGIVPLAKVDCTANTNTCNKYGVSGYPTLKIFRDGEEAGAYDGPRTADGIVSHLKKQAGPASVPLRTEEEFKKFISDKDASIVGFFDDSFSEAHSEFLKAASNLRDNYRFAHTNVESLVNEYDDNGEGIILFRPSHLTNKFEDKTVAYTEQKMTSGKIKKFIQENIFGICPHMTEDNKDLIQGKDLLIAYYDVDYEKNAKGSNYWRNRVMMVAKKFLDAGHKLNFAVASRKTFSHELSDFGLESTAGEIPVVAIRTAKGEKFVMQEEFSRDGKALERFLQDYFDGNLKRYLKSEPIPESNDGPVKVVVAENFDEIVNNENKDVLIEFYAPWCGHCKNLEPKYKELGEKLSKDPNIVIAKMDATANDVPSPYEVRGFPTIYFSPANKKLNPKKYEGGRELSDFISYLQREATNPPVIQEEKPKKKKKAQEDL
Excerpt: In addition to PDI, ERp57 (PDIA3) and ERp72 (PDIA4) are two other major members of the PDI family in both platelets and A549 cells.[62],[63]

[1] = tested on: washed human platelets coincubated with A549, MDA-MB-231, or RPMI8226 cancer cells; experiment: Tumor cell-induced platelet aggregation (TCIPA); assay type: cell-based; details: 2 μM; A549, MDA-MB-231, RPMI8226 cells, in the presence of plasma
[2] = tested on: washed human platelets coincubated with A549 cancer cells; experiment: Tumor cell-induced platelet secretion (PDGF, ATP); assay type: cell-based
Experimental: (a) Washed human platelets were coincubated with A549 cancer cells under the same conditions as described in Figure 4. Secretion of PDGF and ATP were determined with the enzyme-linked immunosorbent assay (ELISA) and bioluminescent assay, respectively. (b) A549 cancer cells were coincubated with washed human platelets at 37 °C and 5% CO2 in a cell culture incubator for 48 h. After washing with PBS, the numbers of viable cancer cells were determined by trypan blue exclusion. Data are mean ± SEM of at least three independent experiments.
Washed human platelets were coincubated with cancer cells under the same conditions as described in the TCIPA assay. After a 25 min incubation in the aggregometer, the samples were centrifuged at 13,000g for 1 min. The concentrations of PDGF-BB and ATP in the supernatants were determined using an ELISA kit (Abcam, Cambridge, UK) and an ATP bioluminescent assay kit (Sigma, MO, USA), respectively.[52]

lung cancer A549 = experiment: Cell viability, resazurin assay, A549; details: Homo sapiens, A549, 24 h, read-out: A549 IC50
Experimental: Cells were maintained in a humidified incubator at 37 °C in 5% CO2, and cell viability was determined with the resazurin assay (Cayman Chemical, USA) after the incubation with compounds for indicated concentrations and times or DMSO as control.[72]

## CC(=O)OC1O[C@H](CSC2=CC(=O)c3cccc(O)c3C2=O)[C@@H](OC(C)=O)C(OC(C)=O)[C@H]1OC(C)=O (stereo in doubt) [Compound 18, 2-(1,2,3,4-Tetra-O-acetyl-6-deoxy-6-thio-α-D-glucopyranose)-8-hydroxynaphthalene-1,4-dione]
ERp57 (PDIA3); ERp57 and ERp72 together, fold higher than required to inhibit PDI
  concentrations inhibiting ERp57 and ERp72 relative to PDI: 4 to 7 fold
ERp57 (PDIA3); human recombinant, Di-E-GSSG
  IC50: 6.98 ± 1.78 µM
[1]
  prevention of TCIPA: significantly prevented TCIPA
[2]
  tumor cell-induced increase in extracellular PDGF and ATP (platelet secretion): reduced
Lung cancer A549
  IC50: 36.8 ± 1.93 µM

— article PMC10945480 (Journal of Medicinal Chemistry, 2024)
